Test results from ChEMBL document CHEMBL5375961, “Design, Synthesis, and Biological Evaluation of Trisubstituted Piperazine Derivatives as Noncovalent Severe Acute Respiratory Syndrome Coronavirus 2 Main Protease Inhibitors with Improved Antiviral Activity and Favorable Druggability” (J Med Chem, 2023).

Assays:
[1] = target: Replicase polyprotein 1ab (Severe acute respiratory syndrome coronavirus 2, UniProt P0DTD1); assay: Inhibition of SARS CoV-2 MPro using MCA-AVLQSGFR-Lys(Dnp)-Lys-NH2 as substrate preincubated for 10 mins followed by substrate addition measured for 10 mins by FRET assay
SARS-CoV-2 [2] = assay: Antiviral activity against SARS-CoV-2 infected in African green monkey Vero E6 cells assessed as reduction in viral replication preincubated with compound followed by viral infection for 1 hr measured after 25 to 26 hrs by ELISA; format: functional, organism-based, Severe acute respiratory syndrome coronavirus 2
[3] = (§1) Cytotoxicity in African green monkey Vero E6 cells […] by Neutral red release assay; format: toxicity, cell-based, Vero C1008; settings: chlorocebus sabaeus, Vero E6 cells
[4] = Half life in Sprague-Dawley rat at 2 mg/kg, iv measured for 0.033 to 24 hrs by LC-MS/MS analysis; format: ADME, organism-based; settings: in vivo, time 0.033-24 hrs
[5] = Tmax in Sprague-Dawley rat at 2 mg/kg, iv measured for 0.033 to 24 hrs by LC-MS/MS analysis; format: ADME, organism-based; settings: in vivo, time 0.033-24 hrs
[6] = Cmax in Sprague-Dawley rat at 2 mg/kg, iv measured for 0.033 to 24 hrs by LC-MS/MS analysis; format: ADME, organism-based; design: time upper 24 hrs, dose 2 mg/kg, time lower 0.033 hrs, route iv; settings: in vivo
[7] = AUC (0 to t) in Sprague-Dawley rat at 2 mg/kg, iv measured for 0.033 to 24 hrs by LC-MS/MS analysis; format: ADME, organism-based; design: time lower 0.033 hrs, dose 2 mg/kg, time upper 24 hrs, route iv; settings: in vivo
[8] = AUC (0 to infinity) in Sprague-Dawley rat at 2 mg/kg, iv measured for 0.033 to 24 hrs by LC-MS/MS analysis; format: ADME, organism-based; design: time 0.033-24 hrs, dose 2 mg/kg, route iv; settings: in vivo
[9] = Volume of distribution in Sprague-Dawley rat at 2 mg/kg, iv measured for 0.033 to 24 hrs by LC-MS/MS analysis; format: ADME, organism-based; settings: in vivo, time 0.033-24 hrs
[10] = Clearance in Sprague-Dawley rat at 2 mg/kg, iv measured for 0.033 to 24 hrs by LC-MS/MS analysis; format: ADME, organism-based; settings: in vivo, time 0.033-24 hrs
[11] = Half life in Sprague-Dawley rat at 10 mg/kg, po measured for 0.083 to 24 hrs by LC-MS/MS analysis; format: ADME, organism-based; settings: in vivo, time 0.083-24 hrs
[12] = Tmax in Sprague-Dawley rat at 10 mg/kg, po measured for 0.083 to 24 hrs by LC-MS/MS analysis; format: ADME, organism-based; settings: in vivo, time 0.083-24 hrs
[13] = Cmax in Sprague-Dawley rat at 10 mg/kg, po measured for 0.083 to 24 hrs by LC-MS/MS analysis; format: ADME, organism-based; design: time lower 0.083 hrs, dose 10 mg/kg, time upper 24 hrs, route po; settings: in vivo
[14] = AUC (0 to t) in Sprague-Dawley rat at 10 mg/kg, po measured for 0.083 to 24 hrs by LC-MS/MS analysis; format: ADME, organism-based; design: time 0.083-24 hrs, dose 10 mg/kg, route po; settings: in vivo
[15] = AUC (0 to infinity) in Sprague-Dawley rat at 10 mg/kg, po measured for 0.083 to 24 hrs by LC-MS/MS analysis; format: ADME, organism-based; design: time 0.083-24 hrs, dose 10 mg/kg, route po; settings: in vivo
[16] = Oral bioavailability in Sprague-Dawley rat at 10 mg/kg measured for 0.083 to 24 hrs by LC-MS/MS analysis; format: ADME, organism-based; settings: in vivo, time 0.083-24 hrs
Vero C1008 = assay: as §1; format: toxicity, cell-based; settings: chlorocebus sabaeus, vero c1008, 600 h; 600 h
SARS-CoV-2 [17] = assay: Antiviral activity against SARS-CoV-2 USA_WA1/2020 infected in African green monkey Vero E6 cells expressing hACE2 assessed as reduction in virus-induced cytopathic effect incubated for 3 days in presence of P-gp efflux inhibitor by Cell Titer-Glo assay; format: functional, organism-based; settings: Severe acute respiratory syndrome coronavirus 2, USA_WA1/2020, Vero C1008, 72 h
SARS-CoV-2 [18] = assay: Antiviral activity against wild-type SARS CoV-2 infected in African green monkey Vero E6 cells assessed as reduction in viral plaque incubated for 3 days; format: functional, organism-based; settings: Severe acute respiratory syndrome coronavirus 2, Vero C1008, 72 h
SARS-CoV-2 [19] = assay: Antiviral activity against SARS CoV-2 Alpha infected in African green monkey Vero E6 cells assessed as reduction in viral plaque incubated for 3 days; format: functional, organism-based; settings: Severe acute respiratory syndrome coronavirus 2, Alpha, Vero C1008, 72 h
SARS-CoV-2 [20] = assay: Antiviral activity against SARS CoV-2 Delta infected in African green monkey Vero E6 cells assessed as reduction in viral plaque incubated for 3 days; format: functional, organism-based; settings: Severe acute respiratory syndrome coronavirus 2, Delta, Vero C1008, 72 h
SARS-CoV-2 [21] = assay: Antiviral activity against SARS CoV-2 Omicron […] infected in African green monkey Vero E6 cells assessed as reduction in viral plaque incubated for 3 days; format: functional, organism-based; settings: Severe acute respiratory syndrome coronavirus 2, Vero C1008, 72 h
[22] = Severe acute respiratory syndrome coronavirus 2, Vero C1008

| Compound | IC50 [1] [nM] | EC50 (SARS-CoV-2 [2]; [22]) [nM] | CC50 at 600 h [3] [nM] | other results |
| --- | --- | --- | --- | --- |
| COc1ccc(NC(=O)[C@@H]2CN(C(=O)c3cccnc3)CCN2c2ccc(Cl)c(Cl)c2)cc1 | 200 | 740 | 95000 |  |
| COc1ccncc1C(=O)N1CCN(c2ccc(Cl)c(Cl)c2)[C@H](C(=O)NCc2cccs2)C1 |  | 780 | > 100000 |  |
| CC(C)(C)[C@H](NC(=O)C(F)(F)F)C(=O)N1C[C@H]2[C@@H]([C@H]1C(=O)N[C@H](C#N)C[C@@H]1CCNC1=O)C2(C)C |  |  | > 100000 |  |
| COc1ccncc1C(=O)N1CCN(c2ccc(Cl)c(Cl)c2)[C@H](C(=O)NCc2cccs2)C1.Cl | 170 |  |  | EC50 (SARS-CoV-2 [2]; vero e6): 530 nM; half-life [4]: 18.6 min; Tmax [5]: 1.8 min; Cmax [6]: 1240 ng/mL; AUC(0-t) [7]: 428 ng·h/mL; AUC(0-inf) [8]: 431 ng·h/mL; Vd [9]: 2.07 L/kg; clearance [10]: 77.4 mL/min/kg; half-life [11]: 86.4 min; Tmax [12]: 30 min; Cmax [13]: 81.6 ng/mL; AUC(0-t) [14]: 202 ng·h/mL; AUC(0-inf) [15]: 226 ng·h/mL; bioavailability [16]: 10.5% |
| O=C(NS(=O)(=O)c1cccs1)[C@@H]1CN(C(=O)c2cccnc2)CCN1c1ccc(Cl)c(Cl)c1 | 9500 |  |  |  |
| O=C(NCc1cccs1)[C@@H]1CN(C(=O)c2cncc3cc[nH]c23)CCN1c1ccc(Cl)c(Cl)c1 [listing 1 of 2 here] | 250 | 540 | 36000 |  |
| O=C(NCc1cccs1)[C@@H]1CN(C(=O)c2cncc(O)c2)CCN1c1ccc(Cl)c(Cl)c1 | 440 | 15000 |  |  |
| O=C(NCc1cccs1)[C@@H]1CN(C(=O)c2cc(=O)[nH]c3ccccc23)CCN1c1ccc(Cl)c(Cl)c1 | 270 | 5400 | > 100000 |  |
| COc1ccncc1C(=O)N1CCN(c2ccc(Cl)c(Cl)c2)[C@H](C(=O)NCc2ccc(F)s2)C1 [listing 1 of 2 here] | 350 |  |  | EC50 (SARS-CoV-2 [2]; vero e6): 1400 nM; CC50 (Vero C1008): 100000 nM |
| COc1cccc2[nH]c(C(=O)N[C@@H](CC(C)C)C(=O)N[C@H](C[C@@H]3CCNC3=O)C(=O)CO)cc12 |  |  |  | EC50 (SARS-CoV-2 [17]): 220 nM |
| CN(Cc1cccs1)C(=O)[C@@H]1CN(C(=O)c2cccnc2)CCN1c1ccc(Cl)c(Cl)c1 | 1300 |  |  |  |
| O=C(NCc1ccc(F)s1)[C@@H]1CN(C(=O)c2cccnc2)CCN1c1ccc(Cl)c(Cl)c1 | 400 | 1500 | 79000 |  |
| O=C(NCc1cccs1)[C@@H]1CN(C(=O)c2cccnc2)CCN1c1ccc(Cl)c(Cl)c1 |  | 1300 | 100000 |  |
| O=C(NCc1cccs1)[C@@H]1CN(C(=O)c2cncc(F)c2)CCN1c1ccc(Cl)c(Cl)c1 | 350 | 1500 | > 100000 |  |
| O=C(NCc1cccs1)[C@@H]1CN(C(=O)c2cnccc2Cl)CCN1c1ccc(Cl)c(Cl)c1 | 320 | 3100 | > 100000 |  |
| COc1ccncc1C(=O)N1CCN(c2ccc(Cl)c(Cl)c2)[C@H](C(=O)NCc2ccc(F)s2)C1 [listing 2 of 2 here] | 410 | 1500 | > 100000 |  |
| COc1ccncc1C(=O)N1CCN(c2ccc(Cl)c(Cl)c2)[C@H](C(=O)Nc2cc(F)c(OC)c(F)c2)C1 | 430 | 3100 |  |  |
| COc1cc(OC)c(NC(=O)[C@@H]2CN(C(=O)c3cnccc3OC)CCN2c2ccc(Cl)c(Cl)c2)cc1F | 400 | 1500 | 79000 |  |
| COc1ccncc1C(=O)N1CCN(c2ccc(Cl)c(Cl)c2)[C@H](C(=O)Nc2ccc(OC(F)F)cc2)C1 | 480 |  |  |  |
| O=C(NCc1ccc(Br)s1)[C@@H]1CN(C(=O)c2cccnc2)CCN1c1ccc(Cl)c(Cl)c1 | 1800 |  |  |  |
| O=C(NCc1cccs1)[C@@H]1CN(C(=O)c2cncc3cc[nH]c23)CCN1c1ccc(Cl)c(Cl)c1 [listing 2 of 2 here] | 210 |  |  | EC50 (SARS-CoV-2 [2]; vero e6): 530 nM; CC50 (Vero C1008): 42000 nM; EC50 (SARS-CoV-2 [18]): 240 nM; EC50 (SARS-CoV-2 [19]): 130 nM; EC50 (SARS-CoV-2 [20]): 220 nM; EC50 (SARS-CoV-2 [21]): 80 nM |
